Patent US20040038875A1, “Alpha 7nicotinic receptor screening assays” (priority 2002, published 2004)

Key:
[1] = molecular target: T1, human alpha 7 nicotinic receptor (Homo sapiens, UniProt P36544); experiment: ACh-induced currents / Ca2+ flux in Xenopus oocytes expressing human alpha 7 nicotinic receptors (two microelectrode voltage clamp, intracellular recordings); assay type: cell-based
T1 construct: expressed in transfected cells; host or cells: Xenopus oocytes injected with in vitro transcribed alpha 7 subunit mRNA
T1 sequence (P36544 23-502): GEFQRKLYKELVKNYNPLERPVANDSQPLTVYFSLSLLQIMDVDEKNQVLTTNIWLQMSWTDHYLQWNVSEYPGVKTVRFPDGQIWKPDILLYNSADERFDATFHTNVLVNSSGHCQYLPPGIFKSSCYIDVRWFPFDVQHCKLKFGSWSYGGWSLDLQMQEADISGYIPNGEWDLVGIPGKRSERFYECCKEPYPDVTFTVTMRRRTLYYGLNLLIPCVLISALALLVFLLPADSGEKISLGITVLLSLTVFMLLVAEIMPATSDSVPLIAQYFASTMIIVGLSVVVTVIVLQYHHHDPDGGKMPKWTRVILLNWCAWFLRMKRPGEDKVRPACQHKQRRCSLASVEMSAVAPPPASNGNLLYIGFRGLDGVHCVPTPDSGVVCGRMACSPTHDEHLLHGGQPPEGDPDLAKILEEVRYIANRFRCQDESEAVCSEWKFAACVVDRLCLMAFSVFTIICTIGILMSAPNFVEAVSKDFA

hippocampal neurons = experiment: Ca2+ flux into hippocampal neurons; assay type: cell-based
Source text: This is of particular interest in relation to Alzheimer's Disease since the hippocampus is the major site of degeneration neuropathology associated with that disease.

[2] = test system: neurons of the substantia nigra; settings: cited from earlier work
[3] = molecular target: T2, homomeric alpha 7 nicotinic receptors (Homo sapiens, UniProt P36544); settings: cited from earlier work
T2 sequence (P36544 23-502): as above

[4] = molecular target: T3, neuronal chick homomeric alpha 7 nicotinic receptors (Gallus gallus, UniProt P22770); settings: in the μM range, chick receptor in oocytes; cited from earlier work
T3 construct: host or cells: oocytes
T3 sequence (P22770 23-502 limits assumed): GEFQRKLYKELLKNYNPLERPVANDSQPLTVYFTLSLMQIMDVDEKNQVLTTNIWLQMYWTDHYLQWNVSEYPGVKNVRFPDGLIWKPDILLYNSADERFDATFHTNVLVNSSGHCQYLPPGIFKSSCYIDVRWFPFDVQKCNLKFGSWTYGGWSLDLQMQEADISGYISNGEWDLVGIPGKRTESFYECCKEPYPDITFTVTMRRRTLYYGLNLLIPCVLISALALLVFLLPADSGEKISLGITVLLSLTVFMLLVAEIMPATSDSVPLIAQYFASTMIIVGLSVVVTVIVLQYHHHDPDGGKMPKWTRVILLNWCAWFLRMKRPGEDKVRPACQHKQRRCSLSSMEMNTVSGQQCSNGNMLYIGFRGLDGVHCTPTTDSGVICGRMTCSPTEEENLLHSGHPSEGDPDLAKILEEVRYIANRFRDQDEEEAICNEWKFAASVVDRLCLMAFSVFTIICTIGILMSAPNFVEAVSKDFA

[5] = molecular target: T2, homomeric alpha 7 nicotinic receptors; parameters: host or cells: oocytes; settings: in the μM range, human receptor in oocytes; cited from earlier work

Compound: AEFHRWSSYMVHWK [Synaptica Peptide]
- reversibility of effects [1]: reversible but recovery was slow
- effect on ACh-induced Ca2+ flux ([1]; 0.001 μM applied with ACh, no pre-incubation): increased Ca^2+ flux
- Ca2+ current, intracellular recordings ([1]; 10 μM applied without ACh): no Ca^2+ current was observed
- current, intracellular recordings ([1]; 10 μM followed after 30 seconds by 100 μM ACh): reduced current compared to that observed with ACh alone
- effect on ACh-evoked response at high dose ([1]; high dose, range 10^−12 to 5×10^−6): enhancement of ACh-evoked response observed with low doses of the peptide was reversed
- effect on ACh-mediated responses ([1]; peptide applied, after 2 minutes co-application of peptide and ACh): inhibition of ACh-mediated responses
- Ca2+ flux into hippocampal neurons (hippocampal neurons): enhance Ca^2+ flux into hippocampal neurons which eventually switches off calcium channels
- calcium potentials induced by NMDA or direct depolarisation ([2]; initial effect): initially enhances calcium potentials
- calcium entry ([2]; sustained application for a few minutes): reduction in calcium entry

Compound: COc1ccc(/C=C2\CCCN=C2c2cccnc2)c(OC)c1 [GTS-21, 2,4-dimethoxybenzylidene anabaseine]
- functional selectivity compared to α4β2 nicotinic receptors [3]: high functional selectivity

Compound: Aβ1-42: Aβ1-42 fragment of human APP associated with Alzheimer's Disease [reference compound]
- modulation of calcium influx [2]: not observed

Compound: ivermectin
- acetyl choline-evoked currents [4]: strongly enhance
- acetyl choline-evoked currents [5]: strongly enhance
